Laboratory results published in patent US20220235065A1 (Epizyme, Inc., priority 2016, published 2022).

How the values were obtained:
[1] = system: H3K9me2 in MDA-MB-231 cells; assay: MDA-MB-231 H3K9me2 in-cell western assay; format: cell-based; conditions: Homo sapiens, read-out: EHMT2 ICW (IC50 μM)
Excerpt: MDA-MB-231 cell line was purchased from ATCC (Manassas, Va., USA). RPMI/Glutamax medium, Penicillin-Streptomycin, Heat Inactivated Fetal Bovine Serum, and D-PBS were purchased from Life Technologies (Grand Island, N.Y., USA). Odyssey blocking buffer, 800CW goat anti-mouse IgG (H+L) antibody, and Licor Odyssey Infrared Scanner were purchased from Licor Biosciences, Lincoln, Nebr., USA. H3K9me2 mouse monoclonal antibody (Cat #1220) was purchased from Abcam (Cambridge, Mass., USA). 16% Paraformaldehyde was purchased from Electron Microscopy Sciences, Hatfield, Pa., USA). MDA-MB-231 cells were maintained in complete growth medium (RPMI supplemented with 10% v/v heat inactivated fetal bovine serum) and cultured at 37° C. under 5% CO2. UNC0638 was purchased from Sigma-Aldrich (St. Louis, Mo., USA).
General Procedure for MDA-MB-231 HEK9me2 In-Cell Western Assay.
Compound (100 nL) was added directly to 384-well cell plate. MDA-MB-231 cells (ATCC) were seeded in assay medium (RPMI/Glutamax supplemented with 10% v/v heat inactivated fetal bovine serum and 1% Penicillin/Streptomycin, Life Technologies) at a concentration of 3,000 cells per well to a Poly-D-Lysine coated 384-well cell culture plate with 50 μL per well. Plates were incubated at 37° C., 5% CO2 for 48 hours (BD Biosciences 356697). Plates were incubated at room temperature for 30 minutes and then incubated at 37° C., 5% CO2 for additional 48 hours. After the incubation, 50 μL per well of 8% paraformaldehyde (Electron Microscopy Sciences) in PBS was added to the plates and incubated at room temperature for 20 minutes. Plates were transferred to a Biotek 406 plate washer and washed 2 times with 100 μL per well of wash buffer (1×PBS containing 0.3% Triton X-100 (v/v)). Next, 60 μL per well of Odyssey blocking buffer (Licor Biosciences) was added to each plate and incubated for 1 hour at room temperature. Blocking buffer was removed and 20 μL of monoclonal primary antibody α-H3K9me2 (Abcam) diluted 1:800 in Odyssey buffer with 0.1% Tween 20 (v/v) were added and plates were incubated overnight (16 hours) at 4° C. Plates were washed 5 times with 100 μL per well of wash buffer. Next 20 μL per well of secondary antibody was added (1:500 800CW […] anti-mouse IgG (H+L) antibody (Licor Biosciences), 1:1000 DRAQ5 (Cell Signaling Technology) in Odyssey buffer with 0.1% Tween 20 (v/v)) and incubated for 1 hour at room temperature. The plates were washed 5 times with 100 μL per well wash buffer then 2 times with 100 μL per well of water. Plates were allowed to dry at room temperature then imaged on a Licor Odyssey Infrared Scanner (Licor Biosciences) which measured integrated intensity at 700 nm and 800 nm wavelengths. Both 700 and 800 channels were scanned.
% Inhibition Calculation.
First, the ratio for each well was determined by
Each plate included fourteen control wells of DMSO only treatment (Minimum Inhibition) as well as fourteen control wells (background wells) for maximum inhibition treated with control compound UNC0638 (Background wells).
The average of the ratio values for each well was calculated and used to determine the percent inhibition for each test well in the plate. Control compound was serially diluted three-fold in DMSO for a total of 10 test concentrations beginning at 1 μM. Percent inhibition was calculated as: […]
IC50 curves were generated using triplicate wells per concentration of compound. The IC50 is the concentration of compound at which measured methylation is inhibited by 50% as interpolated from the dose response curves. IC50 values were calculated using a non-linear regression (variable slope-four parameter fit model) with by the following formula
where Top is fixed at 100% and Bottom is fixed to 0%, [I]=concentration of inhibitor, IC50=half maximal inhibitory concentration and n=Hill Slope.

EHMT1 = biological target: T1, EHMT1 (Homo sapiens, UniProt Q9H9B1); assay: EHMT1 PEP (EHMT1 peptide enzyme assay); format: biochemical; conditions: peptide substrate enzyme assay
T1 sequence (Q9H9B1 1-1298): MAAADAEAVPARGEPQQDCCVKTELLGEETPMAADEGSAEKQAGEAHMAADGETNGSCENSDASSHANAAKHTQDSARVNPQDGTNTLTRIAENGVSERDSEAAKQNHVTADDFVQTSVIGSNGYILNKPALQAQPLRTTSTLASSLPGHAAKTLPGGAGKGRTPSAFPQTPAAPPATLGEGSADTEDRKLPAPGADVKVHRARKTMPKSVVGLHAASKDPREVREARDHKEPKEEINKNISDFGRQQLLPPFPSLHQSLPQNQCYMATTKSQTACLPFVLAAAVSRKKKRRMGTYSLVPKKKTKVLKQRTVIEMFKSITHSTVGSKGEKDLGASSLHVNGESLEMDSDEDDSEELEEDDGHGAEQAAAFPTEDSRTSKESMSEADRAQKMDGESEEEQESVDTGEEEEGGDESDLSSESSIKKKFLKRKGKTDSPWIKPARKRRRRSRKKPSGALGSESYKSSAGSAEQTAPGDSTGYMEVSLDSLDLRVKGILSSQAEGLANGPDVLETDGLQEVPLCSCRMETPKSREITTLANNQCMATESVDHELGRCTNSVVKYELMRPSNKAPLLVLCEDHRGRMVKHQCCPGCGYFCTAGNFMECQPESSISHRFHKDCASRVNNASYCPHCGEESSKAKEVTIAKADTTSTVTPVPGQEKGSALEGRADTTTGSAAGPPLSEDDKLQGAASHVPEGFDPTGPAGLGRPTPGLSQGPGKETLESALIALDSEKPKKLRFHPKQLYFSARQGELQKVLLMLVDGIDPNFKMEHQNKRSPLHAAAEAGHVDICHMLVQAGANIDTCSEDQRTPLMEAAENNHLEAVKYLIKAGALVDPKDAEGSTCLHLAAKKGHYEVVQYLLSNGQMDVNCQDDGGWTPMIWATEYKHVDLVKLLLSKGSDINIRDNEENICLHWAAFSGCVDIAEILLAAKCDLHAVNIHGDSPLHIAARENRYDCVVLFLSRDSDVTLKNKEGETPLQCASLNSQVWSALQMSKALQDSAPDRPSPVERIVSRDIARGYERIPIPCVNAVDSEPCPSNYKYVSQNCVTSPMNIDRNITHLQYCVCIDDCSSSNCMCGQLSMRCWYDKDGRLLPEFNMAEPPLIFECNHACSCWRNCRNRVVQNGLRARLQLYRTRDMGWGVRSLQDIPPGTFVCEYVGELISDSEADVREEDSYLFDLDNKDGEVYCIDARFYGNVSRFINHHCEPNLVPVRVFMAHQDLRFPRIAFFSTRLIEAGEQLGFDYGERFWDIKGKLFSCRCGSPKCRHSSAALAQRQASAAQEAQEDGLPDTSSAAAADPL

Structure (SMILES) | IC50 [1] [µM] | IC50 (EHMT1) [µM]
CNc1cc(C)nc(Nc2ccc(OC)c(-c3cn4ccnc4cn3)c2)n1 [Compound 234] | 1 to 10 | 0.1 to 1
CNc1cc(C)nc(Nc2ccc(OC)c(-c3cc4cnoc4cn3)c2)n1 [Compound 235] | > 10 | > 10
COc1cc(NC2CCNCC2)ccc1-c1cc(C2CC2)cnn1 [Compound 236] | > 10 | > 10
CNc1cc(C)nc(Nc2ccc(OC)c(-c3cc4[nH]ccc4c(C)n3)c2)n1 [Compound 237] | 0.1 to 1 | < 0.1
CNC1=Nc2cc(-c3[nH]c4cnccc4c3C)c(OC)cc2C12CCC2 [Compound 238, 5′-methoxy-N-methyl-6′-(3-methyl-1H-pyrrolo[2,3-c]pyridin-2-yl)spiro[cyclobutane-1,3′-indol]-2′-amine] | < 0.1 | < 0.1
CNc1cc(C)nc(Nc2ccc(C)c(C(=O)Nc3cccnc3)c2)n1 [Compound 239] | > 10 | > 10
CNc1cc(C)nc(Nc2ccc(Cl)c(C(=O)Nc3cccnc3)c2)n1 [Compound 240] | > 10 | 1 to 10
CNc1cc(C)nc(Nc2ccc(C)c(-c3cc4ccncc4[nH]3)c2)n1 [Compound 241] | 0.1 to 1 | < 0.1
CNc1cc(C)nc(Nc2cccc(C(=O)Nc3cccnc3)c2)n1 [Compound 242] | > 10 | > 10
